Reference: US11559575B2, “Multi-epitopic peptide compounds and vaccines against leishmaniasis” (INSTITUT DE RECHERCHE POUR LE DEVELOPPEMENT, priority 2018, dated 2023)
Entries after “also recorded” stand apart in the source; their conditions may differ.

Assays:
Format in all cases: binding, human
[1] = test system: HLA alleles of class II; experiment: Affinity of epitopes for HLA alleles of class II; conditions: Table 1; for Affinity HLA alleles of class II: H2B-II core epitopes; for Affinity for the HLA alleles of class II: H2B-1 epitopes
[2] = test system: HLA alleles of class I; experiment: Affinity of epitopes for HLA alleles of class I; conditions: for Affinity HLA alleles of class I: H2B-II core epitopes; for Affinity HLA alleles of class I / Affinity for the HLA alleles of class I: Table 1; for Affinity for the HLA alleles of class I: H2B-1 epitopes; for Concatenation affinity for HLA allele of class I: LmLRAB (IA, IB, IC) epitopes, Table 2
From the text: The multiepitopic peptide compounds (24 to 40-mer), having a high affinity with a maximized number of HLA molecules of class I and of class II, such as the affinities for the alleles HLA of class I and HLA of class II of the epitopes in the peptides of the sequences SEQ ID NO: 22, 23, 65, 66, 69, 73, 77, 96, 97, 137, 138, and 157, 185, have a high immunoprevalent potential corresponding to an optimal vaccine coverage, in particular for the populations concerned. The degree of coverage of the peptide compounds of the invention show a very high added value compared with the peptides of the prior art.

[3] = test system: HLA supertypes of class I; experiment: Affinity of epitopes for HLA supertypes of class I; conditions: for Affinity HLA supertype allele of class I: H2B-II core epitopes; for Affinity HLA supertype allele of class I / Affinity for the HLA supertypes of class I: Table 1; for Affinity for the HLA supertypes of class I: H2B-1 epitopes; for Affinity for HLA supertypes of class I: LmLRAB (IA, IB, IC) epitopes, Table 2
From the text: HLA molecules are highly polymorphous. This is because there exist more than 2500 HLA proteins of class I (HLA-I) and more than 1000 HLA proteins of class II (HLA-II). However, some of these HLA molecules, close in sequence and in spatial conformation, may have epitopes common to the T cells. The grouping of several thousands of HLA molecules is at the present time described in a little more than 20 or so categories, referred to as “HLA supertypes” having epitopes that are very well preserved for each supertype.

QMSMSHRTM (Leishmania major) [SEQ ID NO: 49]
Affinity HLA alleles of class II [1]: HLA-DRB1*01:01,; also recorded: HLA-DRB4*01:01 | Affinity HLA alleles of class I [2]: HLA-B*15:01 | Affinity HLA supertype allele of class I [3]: HLA-B*62

SMSHRTMKI (Leishmania major) [SEQ ID NO: 16]
Affinity for the HLA alleles of class II [1]: DRB1*07:01,; also recorded: DRB1*13:02 | Affinity for the HLA alleles of class I [2]: HLA-A*02:03,; also recorded: HLA-A*32:01,; also recorded: HLA-A*02:01 | Affinity for the HLA supertypes of class I [3]: HLA-A*02

SSIMVVANK (Leishmania major) [SEQ ID NO: 76]
Concatenation affinity for HLA allele of class I [2]: HLA-A*30:01,; also recorded: HLA-A*03:01,; also recorded: HLA-A*11:01,; also recorded: HLA-A*31:01,; also recorded: HLA-A*68:01 | Affinity for HLA supertypes of class I [3]: HLA-A*01/HLA-A*03,

ASFRSTEAI (Leishmania major) [SEQ ID NO: 75]
Concatenation affinity for HLA allele of class I [2]: HLA-A*32:01,; also recorded: HLA-B*15:03,; also recorded: HLA-B*1517 | Affinity for HLA supertypes of class I [3]: HLA-A*01,; also recorded: HLA-B*27,; also recorded: HLA-B*58

MMERICTEAA (Leishmania major) [SEQ ID NO: 7]
Affinity for the HLA alleles of class I [2]: HLA-A*02:03 | Affinity for the HLA supertypes of class I [3]: HLA-A*02

RFAQGEHDI (Leishmania major) [SEQ ID NO: 70]
Concatenation affinity for HLA allele of class I [2]: HLA-A*2403 | Affinity for HLA supertypes of class I [3]: HLA-A*24

SLKAINAQM (Leishmania major) [SEQ ID NO: 50]
Affinity HLA alleles of class II [1]: HLA-DRB1*04:01,; also recorded: HLA-DRB1*08:02,; also recorded: HLA-DRB1*09:01,; also recorded: HLA-DRB1*11:01,; also recorded: HLA-DRB1*13:02,; also recorded: HLA-DRB4*01:01 | Affinity HLA alleles of class I [2]: HLA-B*15:01 | Affinity HLA supertype allele of class I [3]: HLA-B*62

RLPENAFVI (Leishmania major) [SEQ ID NO: 71]
Concatenation affinity for HLA allele of class I [2]: HLA-A*32:01,; also recorded: HLA-A*02:06,; also recorded: HLA-A*02:11,; also recorded: HLA-A*02:12,; also recorded: HLA-A*02:16,; also recorded: HLA-A*02:19 | Affinity for HLA supertypes of class I [3]: HLA-A*01,; also recorded: HLA-A*02

TMKSMSHRT (Leishmania major) [SEQ ID NO: 20]
Affinity for the HLA alleles of class I [2]: HLA-A*02:03 | Affinity for the HLA supertypes of class I [3]: HLA-A*02

MSMSHRTM (Leishmania major) [SEQ ID NO: 11]
Affinity for the HLA alleles of class I [2]: HLA-B*08:01 | Affinity for the HLA supertypes of class I [3]: HLA-B*08

MSHRTMKSM (Leishmania major) [SEQ ID NO: 10]
Affinity for the HLA alleles of class I [2]: HLA-B*57:01,; also recorded: HLA-A*30:01,; also recorded: HLA-B*15:01 | Affinity for the HLA supertypes of class I [3]: HLA-A*01/HLA-A*03,; also recorded: HLA-B*58,; also recorded: HLA-B*62

NVYVGRSLK (Leishmania major) [SEQ ID NO: 47]
Affinity HLA alleles of class II [1]: HLA-DRB5*01:01 | Affinity HLA alleles of class I [2]: HLA-A*03:01 | Affinity HLA supertype allele of class I [3]: HLA-A*03

MERICTEAA (Leishmania major) [SEQ ID NO: 6]
Affinity for the HLA alleles of class I [2]: HLA-B*40:02,; also recorded: HLA-B*45 | Affinity for the HLA supertypes of class I [3]: HLA-B*44

MSMSHRTMK (Leishmania major) [SEQ ID NO: 12]
Affinity for the HLA alleles of class II [1]: DRB1*03:01,; also recorded: DRB1*09:01,; also recorded: DRB1*11:01 | Affinity for the HLA alleles of class I [2]: HLA-A*11:01,; also recorded: HLA-A*31:01,; also recorded: HLA-A*03:01,; also recorded: HLA-A*68:01,; also recorded: HLA-A*30:01,; also recorded: HLA-A*33:01 | Affinity for the HLA supertypes of class I [3]: HLA-A*01/HLA-; also recorded: A*03, HLA-A*03

KTKQHLREM (Leishmania major) [SEQ ID NO: 68]
Concatenation affinity for HLA allele of class I [2]: HLA-A*30:01,; also recorded: HLA-A*2602 | Affinity for HLA supertypes of class I [3]: HLA-A*01/HLA-A*03,
